Laboratory results taken from ChEMBL document CHEMBL3039007, “Structure-based identification of OATP1B1/3 inhibitors” (Mol Pharmacol, 2013).

Key:
[1] = molecular target: T1, Solute carrier organic anion transporter family member 1B1 (Homo sapiens, UniProt Q9Y6L6); conditions: chinese hamster, cho, 10 µM
T1 sequence (Q9Y6L6 whole entry): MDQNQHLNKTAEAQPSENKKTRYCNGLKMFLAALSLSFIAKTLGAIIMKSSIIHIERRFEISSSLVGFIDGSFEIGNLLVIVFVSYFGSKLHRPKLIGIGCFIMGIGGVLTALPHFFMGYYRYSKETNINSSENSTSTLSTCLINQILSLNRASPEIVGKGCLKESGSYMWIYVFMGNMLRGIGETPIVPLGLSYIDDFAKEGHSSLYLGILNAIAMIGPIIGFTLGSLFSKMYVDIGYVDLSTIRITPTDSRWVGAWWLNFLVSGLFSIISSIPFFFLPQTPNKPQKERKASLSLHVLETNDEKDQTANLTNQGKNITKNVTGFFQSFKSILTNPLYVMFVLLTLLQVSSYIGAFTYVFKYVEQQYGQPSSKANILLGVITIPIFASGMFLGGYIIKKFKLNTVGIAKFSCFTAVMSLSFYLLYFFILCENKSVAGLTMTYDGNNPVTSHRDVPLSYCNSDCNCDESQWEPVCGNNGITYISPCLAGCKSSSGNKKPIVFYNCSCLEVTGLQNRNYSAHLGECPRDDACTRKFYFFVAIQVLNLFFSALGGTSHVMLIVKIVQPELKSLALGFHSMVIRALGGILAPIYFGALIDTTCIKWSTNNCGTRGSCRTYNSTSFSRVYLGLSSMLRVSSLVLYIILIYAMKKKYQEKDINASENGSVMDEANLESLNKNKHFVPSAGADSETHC

[2] = molecular target: T2, Solute carrier organic anion transporter family member 1B3 (Homo sapiens, UniProt Q9NPD5); conditions: chinese hamster, cho, 10 µM
T2 sequence (Q9NPD5 whole entry): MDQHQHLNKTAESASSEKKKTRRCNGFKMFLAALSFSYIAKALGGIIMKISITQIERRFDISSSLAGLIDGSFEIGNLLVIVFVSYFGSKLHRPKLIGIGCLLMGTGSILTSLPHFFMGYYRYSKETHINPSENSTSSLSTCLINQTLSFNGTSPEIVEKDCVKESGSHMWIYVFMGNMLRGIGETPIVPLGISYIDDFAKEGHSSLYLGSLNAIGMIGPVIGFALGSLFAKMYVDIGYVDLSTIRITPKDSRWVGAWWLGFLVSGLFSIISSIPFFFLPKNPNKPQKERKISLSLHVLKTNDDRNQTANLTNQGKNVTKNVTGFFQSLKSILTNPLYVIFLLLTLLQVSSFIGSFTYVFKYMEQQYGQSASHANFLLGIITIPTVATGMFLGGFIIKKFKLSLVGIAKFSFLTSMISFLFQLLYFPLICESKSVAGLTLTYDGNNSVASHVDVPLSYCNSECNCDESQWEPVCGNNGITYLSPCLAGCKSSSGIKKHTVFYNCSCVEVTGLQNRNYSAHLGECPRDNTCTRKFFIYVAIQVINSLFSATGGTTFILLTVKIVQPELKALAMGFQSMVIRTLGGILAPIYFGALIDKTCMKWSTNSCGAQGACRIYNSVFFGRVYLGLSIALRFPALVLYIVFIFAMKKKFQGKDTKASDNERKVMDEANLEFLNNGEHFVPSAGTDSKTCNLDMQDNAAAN

Compound	residual activity [1]	residual activity [2]
CC(C(=O)O)c1cccc(Oc2ccccc2)c1 (configuration not stated) [FENOPROFEN]	160.2%	96.37%
Cl.O=C1NCC2(CCN(CCc3ccccc3)CC2)O1 [FENSPIRIDE HYDROCHLORIDE]	107.4%	93.02%
COP(=S)(OC)Oc1ccc(SC)c(C)c1 [FENTHION]	116.2%	100.4%
COc1cc(/C=C/C(=O)O)ccc1O [FERULATE]	60.24%	82.81%
CCCCC[C@@H](O)[C@H]1C(=O)O[C@H](C)[C@@H](O)/C=C/C=C/C=C/C=C/C=C(\C)[C@@H](O)C[C@H](O)C[C@H](O)C[C@H](O)C[C@H](O)C[C@H](O)C[C@@H]1O [FILIPIN]	96.46%	93.93%
Cl.O=C(COc1ccc(Cl)cc1)N1CCN(Cc2ccc3c(c2)OCO3)CC1 [FIPEXIDE HYDROCHLORIDE]	103.1%	95%
Oc1ccc2c(c1)O[C@H](c1ccc(O)c(O)c1)[C@@H](O)C2 [FISETINIDOL]	74.52%	95.23%
O=c1c(O)c(-c2ccc(O)c(O)c2)oc2cc(O)ccc12 [FISETIN]	56.32%	108.5%
COC(=O)C[C@H]1C(C)(C)[C@@H](OC(C)=O)[C@@H]2CC3=C4CC(=O)O[C@@H](c5ccoc5)[C@]4(C)CC[C@@H]3[C@@]1(C)C2=O [FISSINOLIDE]	27.44%	51.76%
O=C1CC(c2ccccc2)Oc2ccccc21 (configuration not stated) [FLAVANONE]	76.99%	79.68%
COc1cc(O)c(C(=O)/C=C/c2ccccc2)c(OC)c1 [FLAVOKAWAIN B]	141.4%	125.2%
O=c1c(O)c(-c2ccccc2)oc2ccccc12 [FLAVONOL]	133.5%	102.6%
CCC(=O)c1c(O)cc(O)cc1O [FLOPROPIONE]	69.54%	107.4%
O=c1[nH]c(=O)n([C@H]2C[C@H](O)[C@@H](CO)O2)cc1F [FLOXURIDINE]	116.3%	109.2%
OC(Cn1cncn1)(Cn1cncn1)c1ccc(F)cc1F [FLUCONAZOLE]	86.64%	106.5%
CC(=O)OCC(=O)[C@@]1(O)CC[C@H]2[C@@H]3CCC4=CC(=O)CC[C@]4(C)[C@@]3(F)[C@@H](O)C[C@@]21C [FLUDROCORTISONE ACETATE]	36.29%	71.2%
O=C(O)c1ccccc1Nc1cccc(C(F)(F)F)c1 [FLUFENAMIC ACID]	211.3%	64.03%
CC1CCc2cc(F)cc3c(=O)c(C(=O)O)cn1c23 (configuration not stated) [FLUMEQUINE]	74.99%	107%
C[C@@H]1C[C@H]2[C@@H]3C[C@H](F)C4=CC(=O)C=C[C@]4(C)[C@@]3(F)[C@@H](O)C[C@]2(C)[C@@]1(O)C(=O)COC(=O)C(C)(C)C [FLUMETHASONE PIVALATE]	98.41%	107.9%
C[C@@H]1C[C@H]2[C@@H]3C[C@H](F)C4=CC(=O)C=C[C@]4(C)[C@@]3(F)[C@@H](O)C[C@]2(C)[C@@]1(O)C(=O)CO [FLUMETHASONE]	84.89%	135.8%
Cl.Cl.Fc1ccc(C(c2ccc(F)cc2)N2CCN(C/C=C/c3ccccc3)CC2)cc1 [FLUNARIZINE HYDROCHLORIDE]	117.4%	102.7%
CC1(C)O[C@@H]2C[C@H]3[C@@H]4C[C@H](F)C5=CC(=O)C=C[C@]5(C)[C@H]4[C@@H](O)C[C@]3(C)[C@]2(C(=O)CO)O1 [FLUNISOLIDE]	55.07%	77.49%
CC(=O)[C@@]1(O)CC[C@H]2[C@@H]3C[C@H](C)C4=CC(=O)C=C[C@]4(C)[C@@]3(F)[C@@H](O)C[C@@]21C [FLUOROMETHOLONE]	85.71%	105.7%

Compound	residual activity [1]	residual activity [2]
O=c1[nH]cc(F)c(=O)[nH]1 [FLUOROURACIL]	86.84%	91.17%
CNCCC(Oc1ccc(C(F)(F)F)cc1)c1ccccc1 (configuration not stated) [FLUOXETINE]	55.32%	77.22%
CC1(C)O[C@@H]2C[C@H]3[C@@H]4C[C@H](F)C5=CC(=O)CC[C@]5(C)[C@H]4[C@@H](O)C[C@]3(C)[C@]2(C(=O)CO)O1 [FLURANDRENOLIDE]	129.2%	99.16%
CC(C(=O)O)c1ccc(-c2ccccc2)c(F)c1 (configuration not stated) [FLURBIPROFEN]	227%	98.28%
CC(C)C(=O)Nc1ccc([N+](=O)[O-])c(C(F)(F)F)c1 [FLUTAMIDE]	130.9%	133.6%
Nc1nc2ncc(CNc3ccc(C(=O)N[C@@H](CCC(=O)O)C(=O)O)cc3)nc2c(=O)[nH]1 [FOLIC ACID]	98.4%	109.7%
C[C@]12CCC(=O)C(O)=C1CC[C@@H]1[C@@H]2CC[C@]2(C)C(=O)CC[C@@H]12 [FORMESTANE]	81.74%	106.1%
COc1ccc(-c2coc3cc(O)ccc3c2=O)cc1 [FORMONONETIN]	169.8%	114.7%
O=C([O-])P(=O)([O-])[O-].[Na+].[Na+].[Na+] [FOSCARNET SODIUM]	113%	110.8%
O=C(O)c1ccccc1OP(=O)(O)O [FOSFOSAL]	68.68%	92.75%
COc1cc2ccc(=O)oc2c(O)c1O [FRAXETIN]	68.87%	106.2%
COc1cc2ccc(=O)oc2c(OC)c1OC [FRAXIDIN METHYL ETHER]	92.39%	92.79%
C[C@H]1C(=O)CC[C@@H]2[C@]1(C)CC[C@H]1[C@@]2(C)CC[C@@]2(C)[C@@H]3CC(C)(C)CC[C@]3(C)CC[C@]12C [FRIEDELINE]	112%	90.31%
O=C1OCCN1/N=C/c1ccc([N+](=O)[O-])o1 [FURAZOLIDONE]	91.17%	94.52%
NS(=O)(=O)c1cc(C(=O)O)c(NCc2ccco2)cc1Cl [FUROSEMIDE]	86.58%	90.27%
CC(=O)O[C@H]1C[C@@]2(C)[C@@H](C[C@@H](O)[C@H]3[C@@]4(C)CC[C@@H](O)[C@@H](C)[C@@H]4CC[C@@]32C)/C1=C(\CCC=C(C)C)C(=O)O [FUSIDIC ACID]	39.52%	58.34%
CC[N+](CC)(CC)CCOc1cccc(OCC[N+](CC)(CC)CC)c1OCC[N+](CC)(CC)CC.[I-].[I-].[I-] [GALLAMINE TRIETHIODIDE]	91.38%	79.25%
O=C(O)c1cc(O)c(O)c(O)c1 [GALLIC ACID]	67.94%	91.35%
CC(C)=CCC[C@]1(C)C=Cc2c(O)c3c(c(CC=C(C)C)c2O1)O[C@]12C(=C[C@@H]4C[C@H]1C(C)(C)O[C@@]2(C/C=C(/C)C(=O)O)C4=O)C3=O [GAMBOGIC ACID]	75.57%	65.8%
NCC(O)CC(=O)O (stereo not drawn) [GAMMA-AMINO-BETA-HYDROXYBUTYRIC ACID]	120.5%	106.5%
NCCCC(=O)O [GAMMA-AMINOBUTYRIC ACID]	56.63%	81.28%
COC(=O)c1c(OC)cc2c(c1C)Oc1c(Cl)c(OC(C)=O)c(Cl)c(C)c1C(=O)O2 [GANGLEOIDIN ACETATE]	34.6%	54.62%
COc1c(N2CCNC(C)C2)c(F)cc2c(=O)c(C(=O)O)cn(C3CC3)c12 (configuration not stated) [GATIFLOXACIN]	121.9%	96.61%
